Experimental data from patent publication US20110166132A1, “Gamma Secretase Modulators” (Amgen Inc., priority 2007, published 2011).

These compounds were tested against T1, gamma secretase (Homo sapiens, UniProt P49768) (assay: GSM cell-based assay: Aβ 42 inhibition or reduction in HEK 293 cells over-expressing APP (sandwich ELISA)). Conditions: approximate IC50; HEK293 cells stably expressing full length APP, 24 hours incubation, 10-point dose response starting at 10 μM.
T1 construct: HEK293 cells stably expressing full length Amyloid Precursor Protein (APP); endogenous in cells; host or cells: HEK 293 cells stably expressing full length APP
From the text: GSM cell-based assays were designed to measure the modulation of Aβ 42 from HEK 293 cells over-expressing APP.
Three simultaneous cell-based assays, namely Aβ 42 inhibition or reduction, Aβ 40 inhibition or reduction and a measurement of cell viability of the cells from which the Aβ 42/40 readout was obtained, together gave an interpretation of gamma secretase modulation (GSM). The assays measure Aβ 42 and Ab 40 from conditioned medium of test compound treated HEK 293 cells.
HEK293 cells stably expressing full length Amyloid Precursor Protein (APP) were plated at a density of 100K cells/well in 96 well plates (Costar). The cells were cultivated for 6 hours at 37° C. and 5% CO2 in DMEM supplemented with 10% FBS. The test compounds were then added to cells in 10-point dose response concentrations with the starting concentration being 10 μM. The compounds were diluted from stock solutions in DMSO and the final DMSO concentration of the test compounds on cells was 0.1%. After 24 hours of incubation with the test compounds the supernatant conditioned media was collected and the Aβ 42, Aβ 40 levels were determined using a sandwich ELISA. A cell viability test (CellTiter-Blue Cell Viability assay, Promega) on the cells from which the conditioned medium was harvested for Aβ 42 or Aβ 40 readouts gave an indication of cell survivability as a possible reason for false positive Aβ 42 or 40 reduction or inhibition readout. The IC50 of the compound (for either Aβ 42 or Aβ 40) was calculated from the percent of control or percent inhibition of Aβ 42 or Aβ 40 as a function of the concentration of the test compound.
The sandwich ELISA to detect Aβ 42 or Aβ 40 was performed in 96 well microtiter plates, which were pre-treated with goat anti-rabbit IgG (Pierce). The capture and detecting antibody pair that were used to detect Aβ 42 and Aβ 40 from cell supernatants were rabbit monoclonal Antibody 42 (RabMAb 42) and affinity purified polyclonal Antibody 40 pAB40 (Biosource) as capture antibodies and biotinylated 6E10 (Signet Labs Inc.) as detection antibody. The optimal concentration for RabMAb 42 was 1 μg/ml in Superblock/TBS (Pierce) that was supplemented with 0.05% Tween 20 (Sigma). The optimal concentration for the pAb40 antibody was 3 μg/ml in Superblock/TBS (Pierce) that was supplemented with 0.05% Tween 20 (Sigma). Optimal concentration for the detection antibody 6E10-biotinylated was 0.5 μg/ml in Superblock/TBS (Pierce) that had been supplemented with 2% normal goat serum and 2% normal mouse serum.
Cellular supernatants were incubated with the capture antibody for 16-20 hours at 4° C., followed by 3 wash steps in TBS-tween (0.05%). The detecting antibody incubation was for 3 hours at 4° C., again followed by the wash steps as described previously. The final readout of the ELISA is Time-Resolved Fluorescence (counts per minute) using Delfia reagents Streptavidin-Europium and Enhancement solutions (Perkin Elmer) and the EnVision Multilabel plate reader (Perkin Elmer).
Work on `COc1ncc(-c2cccc(C(C)C(=O)Nc3ccc(-c4ccnc(C)c4)cc3)c2)cn1` (stereo not drawn) [Cpd 156, 2-(3-(2-methoxy-5-pyrimidinyl)phenyl)-N-(4-(2-methyl-4-pyridinyl)phenyl)-propanamide] yielded an IC50 of 246 nM.
Compound `COc1cccc(C(=O)Nc2ccc(-c3ccnc(C)c3)cc2)c1` [Cpd 34] has an IC50 of 2930 nM.
Work on `Cc1cc(-c2ccc(NC(=O)C(C)c3cccc(-c4ccc(OC(F)(F)F)cc4)c3)cc2)ccn1` (stereo not drawn) [Cpd 453, N-(4-(2-methyl-4-pyridinyl)phenyl)-2-(4′-(trifluoromethoxy)-3-biphenylyl)-propanamide] yielded an IC50 of 1420 nM.
In the case of `Cc1cc(-c2ccc(NC(=O)C(C)c3cccc(N4CCOCC4)n3)cc2)ccn1` (stereo not drawn) [Cpd 141], the IC50 is reported as 8570 nM.
`CC[C@@H](C(=O)Nc1ccc(-c2ccnc(C)c2)cc1)c1ccccc1` [Cpd 344, (2R)-N-(4-(2-methyl-4-pyridinyl)phenyl)-2-phenylbutanamide] gave an IC50 of over 10000 nM.
With `COc1cc(C(C)C(=O)Nc2ccc(-c3ccnc(C)c3)cc2)ccc1N` (stereo not drawn) [Cpd 574, 2-(4-amino-3-methoxyphenyl)-N-(4-(2-methyl-4-pyridinyl)phenyl)propanamide] the IC50 was over 10000 nM.
`Cc1cc(-c2ccc(NC(=O)Cc3ccc4c(c3)OCO4)cc2)ccn1` [Cpd 16, 2-(1,3-benzodioxol-5-yl)-N-(4-(2-methyl-4-pyridinyl)phenyl)acetamide] showed an IC50 of 473 nM.
`Cc1cc(-c2ccc(NC(=O)[C@H](CC3CC3)c3cccc(Br)c3)cc2)ccn1` [Cpd 180, (2R)-2-(3-bromophenyl)-3-cyclopropyl-N-(4-(2-methyl-4-pyridinyl)phenyl)-propanamide] was tested, and the IC50 was 367 nM.
With `Cc1cc(-c2ccc(NC(=O)C(C)c3cccc(Cl)n3)cc2)ccn1` (stereo not drawn) [Cpd 24, 2-(6-chloro-2-pyridinyl)-N-(4-(2-methyl-4-pyridinyl)phenyl)propanamide] the IC50 was 1970 nM.
`Cc1cc(-c2ccc(NC(=O)[C@H](C)c3cccc(-c4ccc(C(=O)O)cc4)c3)cc2)ccn1` [Cpd 639] was tested, and the IC50 was over 10000 nM.
In the case of `Cc1cc(-c2ccc(NC(=O)C(C)c3ccc(N4CCCCC4)nc3)cc2)ccn1` (stereo not drawn) [Cpd 580, N-(4-(2-methyl-4-pyridinyl)phenyl)-2-(6-(1-piperidinyl)-3-pyridinyl)propanamide], the IC50 is reported as 616 nM.
In the case of `Cc1cc(-c2ccc(NC(=O)C(C)c3ccc4c(c3)[nH]c3ccc(Cl)cc34)cc2)ccn1` (stereo not drawn) [Cpd 65, 2-(6-chloro-9H-carbazol-2-yl)-N-(4-(2-methyl-4-pyridinyl)phenyl)propanamide], the IC50 is reported as 108 nM.
Compound `Cc1cc(-c2ccc(NC(=O)C(C)c3cccc(-c4ccc(S(C)(=O)=O)cc4)c3)cc2)ccn1` (stereo not drawn) [Cpd 442, N-(4-(2-methyl-4-pyridinyl)phenyl)-2-(4′-(methylsulfonyl)-3-biphenylyl)propanamide] has an IC50 of 628 nM.
In the case of `Cc1cc(-c2ccc(NC(=O)Cc3ccc(Oc4ccccc4)cc3)cc2)ccn1` [Cpd 112], the IC50 is reported as 5780 nM.
Compound `Cc1cc(-c2ccc(NC(=O)C3(c4ccc(Cl)cc4)CCC3)cc2)ccn1` [Cpd 310] has an IC50 of 573 nM.
`Cc1cc(-c2ccc(NC(=O)C3CC3(F)F)cc2)ccn1` (stereo not drawn) [Cpd 185] gave an IC50 of 910 nM.
Compound `Cc1cc(-c2ccc(NC(=O)Cc3ccc4c(c3)CCO4)cc2)ccn1` [Cpd 116, 2-(2,3-dihydro-1-benzofuran-5-yl)-N-(4-(2-methyl-4-pyridinyl)phenyl)acetamide] has an IC50 of 4140 nM.
`Cc1cc(-c2ccc(NC(=O)Cc3ccc4oc(-c5ccccc5)nc4c3)cc2)ccn1` [Cpd 125, N-(4-(2-methyl-4-pyridinyl)phenyl)-2-(2-phenyl-1,3-benzoxazol-5-yl)acetamide] was tested, and the IC50 was 272 nM.
`Cc1cc(-c2ccc(NC(=O)C(c3ccccc3)C(C)C)cc2)ccn1` (stereo not drawn) [Cpd 39, 3-methyl-N-(4-(2-methyl-4-pyridinyl)-phenyl)-2-phenylbutanamide] gave an IC50 of 474 nM.
Compound `Cc1cc(-c2ccc(NC(=O)c3ccc4[nH]c5c(c4c3)CSCC5)cc2)ccn1` [Cpd 662] has an IC50 of 5100 nM.
For `Cc1cc(-c2ccc(NC(=O)C(C)c3ccc(NC(C)C)cc3)cc2)ccn1` (stereo not drawn) [Cpd 443], the IC50 was 302 nM.
Compound `Cc1cc(-c2ccc(NC(=O)C(CC(C)C)c3cccc(S(C)(=O)=O)c3)cc2)ccn1` (stereo not drawn) [Cpd 145] has an IC50 of over 10000 nM.
Work on `Cc1cc(-c2ccc(NC(=O)C3CC(=O)N(C4CCCCC4)C3)cc2)ccn1` (stereo not drawn) [Cpd 60] yielded an IC50 of over 10000 nM.
Compound `Cc1cc(-c2ccc(NC(=O)c3cccc(Oc4ccccc4)c3)cc2)ccn1` [Cpd 31] has an IC50 of 854 nM.
In the case of `Cc1cc(-c2ccc(NC(=O)C(C)c3cc(N4CCOCC4)cc(C(F)(F)F)c3)cc2)ccn1` (stereo not drawn) [Cpd 441, N-(4-(2-methyl-4-pyridinyl)phenyl)-2-(3-(4-morpholinyl)-5-(trifluoromethyl)phenyl)-propanamide], the IC50 is reported as 1840 nM.
For `Cc1cc(-c2ccc(NC(=O)C(C)c3cccc(-c4ccc(N(C)C)cc4)c3)cc2)ccn1` (stereo not drawn) [Cpd 147, 2-(4'-(dimethylamino)-3-biphenylyl)-N-(4-(2-methyl-4-pyridinyl)phenyl)propanamide], the IC50 was 116 nM.
Work on `Cc1cc(-c2ccc(NC(=O)C3CC3)cc2)ccn1` [Cpd 54] yielded an IC50 of over 10000 nM.
For `Cc1cc(-c2ccc(NC(=O)C(C)c3cccc(C4=CCNCC4)c3)cc2)ccn1` (stereo not drawn) [Cpd 425, N-(4-(2-methyl-4-pyridinyl)phenyl)-2-(3-(1,2,3,6-tetrahydro-4-pyridinyl)phenyl)-propanamide], the IC50 was over 10000 nM.
With `Cc1cc(-c2ccc(NC(=O)C3(c4ccccc4F)CC3)cc2)ccn1` [Cpd 288] the IC50 was 1770 nM.
`Cc1cc(-c2ccc(NC(=O)C3CCCc4ccccc43)cc2)ccn1` (stereo not drawn) [Cpd 322] gave an IC50 of 2690 nM.
`CC(=O)N1CCC(C(=O)Nc2ccc(-c3ccnc(C)c3)cc2)CC1` [Cpd 55] showed an IC50 of over 10000 nM.
Work on `COc1cc(NC(=O)C(C)c2cc(F)cc(C(F)(F)F)c2)ccc1-c1ccnc(C)c1` (stereo not drawn) [Cpd 454, 2-(3-fluoro-5-(trifluoromethyl)phenyl)-N-(3-methoxy-4-(2-methyl-4-pyridinyl)-phenyl)propanamide] yielded an IC50 of 806 nM.
For `Cc1cc(-c2ccc(NC(=O)c3cccc4c3oc3ccccc34)cc2)ccn1` [Cpd 286], the IC50 was 6710 nM.
For `Cc1cc(-c2ccc(NC(=O)Cc3ccc4oc(-c5cccnc5)nc4c3)cc2)ccn1` [Cpd 583, N-(4-(2-methyl-4-pyridinyl)phenyl)-2-(2-(3-pyridinyl)-1,3-benzoxazol-5-yl)-acetamide], the IC50 was 4610 nM.
Compound `Cc1cc(-c2ccc(NC(=O)C3CC(=O)N(c4ccccc4)C3)cc2)ccn1` (stereo not drawn) [Cpd 53] has an IC50 of over 10000 nM.
`Cc1cc(C(C)C(=O)Nc2ccc(-c3ccnc(C)c3)cc2)cc(N2CCC(F)(F)CC2)c1` (stereo not drawn) [Cpd 637, 2-(3-(4,4-difluoro-1-piperidinyl)-5-methyl-phenyl)-N-(4-(2-methyl-4-pyridinyl)-phenyl)propanamide] gave an IC50 of over 10000 nM.
With `Cc1cc(-c2ccc(NC(=O)c3ccc(CN4CCOCC4)cc3)cc2)ccn1` [Cpd 625] the IC50 was over 3330 nM.
With `Cc1cc(-c2ccc(NC(=O)C3CCc4ccccc43)cc2)ccn1` (stereo not drawn) [Cpd 117] the IC50 was 3860 nM.
`Cc1cc(-c2ccc(NC(=O)c3cn4c(C)cccc4n3)cc2)ccn1` [Cpd 20] was tested, and the IC50 was 2610 nM.
For `Cc1cc(-c2ccc(NC(=O)c3cc(Cl)cc(Cl)c3)c(F)c2)ccn1` [Cpd 86], the IC50 was over 10000 nM.
For `Cc1cc(-c2ccc(NC(=O)c3cc4ccccc4n3C)cc2)ccn1` [Cpd 305], the IC50 was 5540 nM.
Compound `COc1cc(NC(=O)C(C)c2cccc(-c3ccc(N4CCOCC4)cc3)c2)ccc1-c1ccnc(C)c1` (stereo not drawn) [Cpd 191] has an IC50 of 179 nM.
For `Cc1cc(-c2ccc(NC(=O)[C@H]3CCCN3C(=O)OC(C)(C)C)cc2)ccn1` [Cpd 168], the IC50 was over 10000 nM.
In the case of `Cc1cc(-c2ccc(NC(=O)C(C)c3ccc(N)cc3)cc2)ccn1` (stereo not drawn) [Cpd 419, 2-(4-aminophenyl)-N-(4-(2-methyl-4-pyridinyl)phenyl)propanamide], the IC50 is reported as over 10000 nM.
With `Cc1cc(-c2ccc(NC(=O)Cc3ccc(OCc4ccccc4)cc3)cc2)ccn1` [Cpd 111, 2-(4-(benzyloxy)phenyl)-N-(4-(2-methyl-4-pyridinyl)phenyl)acetamide] the IC50 was 3300 nM.
Work on `Cc1cc(-c2ccc(NC(=O)C(C)c3cccc(-c4cccc(C#N)c4)c3)cc2)ccn1` (stereo not drawn) [Cpd 154, 2-(3′-cyano-3-biphenylyl)-N-(4-(2-methyl-4-pyridinyl)phenyl)propanamide] yielded an IC50 of 216 nM.
Work on `COc1ccc(C(=O)Nc2ccc(-c3ccnc(C)c3)cc2)cc1Cl` [Cpd 37] yielded an IC50 of 567 nM.
Work on `Cc1cc(-c2ccc(NC(=O)C(C)n3ccc4ccccc43)cc2)ccn1` (stereo not drawn) [Cpd 414, 2-(1H-indol-1-yl)-N-(4-(2-methyl-4-pyridinyl)phenyl)propanamide] yielded an IC50 of 1020 nM.
